Measurements taken from US8993117B2, “Devices with multiple surface functionality” (The Trustees of Princeton University, priority 2005, dated 2015).

Columns and labels:
[1] = one week, cited from earlier work
[2] = Solvent rinsing and tape peel testing of coatings (IR/DRIFT); type: physicochemical; settings: aerosol in THF, room temperature, no heating
Procedure: Coupons which had been treated were rinsed several times with deposition solvent and, where appropriate, ethanol and/or water, to remove soluble residues. A piece of tape (e.g., 3M red Scotch™ “650” tape or Scotch Masking Tape #234; 37 oz./in. adhesion to steel) was adhered to the derivatized surface of the solvent washed foil sample and quickly removed. The freshly “peeled” coupon was then analyzed again by DRIFT spectroscopy.
Samples of coupons of aluminum, iron, and titanium, prepared as described above, were treated with an aerosol of n-octadecanephosphonic acid in tetrahydrofuron (THF) at room temperature in the ambient environment. Following the spray application of the acid solution the solvent was allowed to evaporate at ambient temperature and the derivatized surfaces of the coupons were analyzed by FTIR. The surfaces where then washed with THF and analyzed both before and after a peel test using red Scotch™ “650” tape.

[3] = pH 7; cited from earlier work
[4] = Quartz crystal microbalance (QCM) surface coverage / loading of phosphonate coatings on Ti; type: physicochemical
Procedure: The QCM technique allows accurate, gravimetric determination of mass changes on an electrode which is deposited on a piezoelectric quartz crystal. It is, thus, ideal to monitor surface reactions of target metals when they are used as such electrodes: the QCM oscillates at a resonant frequency which is determined by the cut and mass of the crystal, and, just as for a classical oscillator, changes in electrode mass result in changes in crystal resonant frequency. […] Up to three different reference crystals (prepared in different batches) were used as received to calibrate the QCM. […] To ensure that monolayer coverage (at most) occurred on Ti surface, phosphonic acid-based films were subjected to copious rinsing followed by evacuation (≦10^−2 Torr) until a constant crystal frequency was established (within experimental noise levels of ±2 Hz).
Piezoelectric quarts crystals (International Crystal Manufacturers [ICM]; AT-cut, 1000 Å Ti electrodes, 10 MHz, overtone polished, 0.201 in. electrode diameter) were used for film deposition and as references. […] In each experimental run, the fundamental frequency (fo) of an unreacted crystal was measured. […] A new frequency (fc) was then measured. The crystal was then subjected to rinsing followed by evacuation (≦10^−2 Torr) until a constant frequency was measured (±2 Hz), assumed to be a monolayer coverage of the Ti electrodes. […]

[5] = Hydrolytic stability of DANSYL-RGDC labelled diphosphonate SAM by fluorimetry; type: physicochemical; settings: after about 96 hours at pH 7.5, cleaved at about pH 12
Procedure: To further test the stability of diphosphonate SAMs towards aqueous conditions, fluorimetry was employed. Coupons of Ti-mPEG were then exposed to vapor of […] to yield the surface-bound complex. The complex modified coupons were then treated with a solution of 6-maleimidohexanoic acid in THF and were then rinsed thoroughly, and analyzed via IR (vCO≈1705 cm^−1). The coupons were then placed in a solution of N-(5-dimethylamino-1-naphthyl-sulfonyl)-RGDC (DANSYL-RGDC), then rinsed thoroughly, and probed via IR (vpeptide-CO≈1650-1690 cm^−1). The DANSYL group provides a fluorescent “tag” with which to monitor hydrolysis of the surface.
Fluorophore-labeled coupons were immersed in water at about pH 7.5. Fluorescence intensity of the supernatant was measured over about 90 hours; a calibration curve of DANSYL-RGDC was also prepared to relate concentrations in solution with fluorescence intensity, according to Beer's Law. […] Fluorescence intensity in the supernatant was measured against a second calibration curve of DANSYL-RGDC at about pH 12, and the solution concentration was determined by Beer's Law. […] At this point, the DANSYL-RGDC remaining on the surface was measured by exposing the coupon to strong alkaline (about pH 12) for about 3 hours to cleave any remaining zirconium complex species from the SAM. […]

αvβ3 integrins = αvβ3 integrins (Homo sapiens, UniProt P05106+P06756); settings: cited from earlier work
Sequence of αvβ3 integrins (P06756 31-1048): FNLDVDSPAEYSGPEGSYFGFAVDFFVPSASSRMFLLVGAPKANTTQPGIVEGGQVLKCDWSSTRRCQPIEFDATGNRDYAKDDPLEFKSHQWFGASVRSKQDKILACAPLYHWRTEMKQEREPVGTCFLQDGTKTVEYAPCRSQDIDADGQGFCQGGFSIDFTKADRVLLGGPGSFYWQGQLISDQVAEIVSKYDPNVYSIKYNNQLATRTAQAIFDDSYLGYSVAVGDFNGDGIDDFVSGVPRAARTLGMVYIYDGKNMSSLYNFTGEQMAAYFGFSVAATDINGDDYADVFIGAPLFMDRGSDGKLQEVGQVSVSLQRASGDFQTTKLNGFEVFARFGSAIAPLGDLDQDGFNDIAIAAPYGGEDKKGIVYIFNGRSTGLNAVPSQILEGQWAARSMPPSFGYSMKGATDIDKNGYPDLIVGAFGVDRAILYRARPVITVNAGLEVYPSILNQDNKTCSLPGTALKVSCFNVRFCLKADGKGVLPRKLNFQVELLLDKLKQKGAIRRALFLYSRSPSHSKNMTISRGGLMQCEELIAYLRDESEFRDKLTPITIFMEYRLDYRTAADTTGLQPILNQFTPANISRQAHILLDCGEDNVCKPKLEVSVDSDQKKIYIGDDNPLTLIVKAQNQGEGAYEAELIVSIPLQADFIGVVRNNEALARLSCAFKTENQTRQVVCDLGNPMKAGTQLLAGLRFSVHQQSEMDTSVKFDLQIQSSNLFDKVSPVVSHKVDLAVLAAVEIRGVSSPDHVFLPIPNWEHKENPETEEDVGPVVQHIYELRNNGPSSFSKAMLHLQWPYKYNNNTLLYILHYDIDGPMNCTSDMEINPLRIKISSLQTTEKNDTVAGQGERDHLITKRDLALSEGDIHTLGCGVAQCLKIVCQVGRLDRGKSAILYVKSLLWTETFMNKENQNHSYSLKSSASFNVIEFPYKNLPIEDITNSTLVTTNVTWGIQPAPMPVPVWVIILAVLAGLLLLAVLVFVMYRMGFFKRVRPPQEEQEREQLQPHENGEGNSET
Sequence of αvβ3 integrins (P05106 27-788): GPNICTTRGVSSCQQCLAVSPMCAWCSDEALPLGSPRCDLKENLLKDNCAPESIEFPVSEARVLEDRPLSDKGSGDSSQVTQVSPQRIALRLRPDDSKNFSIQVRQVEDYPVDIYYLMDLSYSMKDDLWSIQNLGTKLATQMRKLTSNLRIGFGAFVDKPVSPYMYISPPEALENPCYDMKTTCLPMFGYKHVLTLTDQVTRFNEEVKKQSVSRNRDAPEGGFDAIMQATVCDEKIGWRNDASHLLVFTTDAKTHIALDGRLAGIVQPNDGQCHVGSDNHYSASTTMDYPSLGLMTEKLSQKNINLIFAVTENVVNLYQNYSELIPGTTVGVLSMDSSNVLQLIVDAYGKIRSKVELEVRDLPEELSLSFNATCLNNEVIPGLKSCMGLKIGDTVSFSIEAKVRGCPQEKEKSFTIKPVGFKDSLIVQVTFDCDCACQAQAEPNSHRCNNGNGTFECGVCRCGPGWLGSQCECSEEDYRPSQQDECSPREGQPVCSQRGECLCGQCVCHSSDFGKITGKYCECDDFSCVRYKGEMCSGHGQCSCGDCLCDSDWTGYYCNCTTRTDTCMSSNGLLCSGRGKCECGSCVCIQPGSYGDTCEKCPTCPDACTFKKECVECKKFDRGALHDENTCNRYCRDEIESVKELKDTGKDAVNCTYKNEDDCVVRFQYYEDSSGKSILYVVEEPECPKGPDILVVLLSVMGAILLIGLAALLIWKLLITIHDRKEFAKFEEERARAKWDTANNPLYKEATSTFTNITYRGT

Molecule: CCCCCCCCCCCCCCCCCC[Si](C)(C)Cl [octadecyldimethylchlorosilane]
- Surface hydrolysis of coated powders (in words) [1]: almost total surface hydrolysis

Molecule: CCCCCCCCCCCCCCCCCCP(=O)(O)O [octadecylphosphonic acid]
- Persistence of phosphonic acid layer after washing and peel test, aluminum native oxide [2]: survives washing, but not peel testing
- Persistence of phosphonic acid layer after washing and peel test, iron native oxide [2]: survives both washing and peel testing
- Persistence of phosphonic acid layer after washing, titanium native oxide [2]: readily removed by washing with the deposition solvent
- Bound material lost from the surface of TiO2 ([1]; neutral pH): 16%
- Bound material lost from the surface of ZrO2 ([1]; neutral pH): 5%

Molecule: (cyclo)-1,6 acetyl-CRGDF-penicillamine-NH2
- Stability relative to linear RGDF [3]: 30 times

Molecule: Arg-Gly-Asp-Cys (RGDC; printed: Arg-Gly-Asp-Cys) [cysteine modified fibronectin cell attachment peptide]
- RGDC loadings on SAMs of 11-hydroxyphosphonate on Ti [4]: ~0.52 nmol/cm^2

Molecule: N-(5-dimethylamino-1-naphthyl-sulfonyl)-RGDC [DANSYL-RGDC]
- Surface loading of DANSYL-RGDC stable at about pH 7.5 [5]: about 0.58 nmol/cm^2

Molecule: cyclic (RGDFV-)
- Specificity towards αvβ3 integrins relative to linear GRGDSPK (αvβ3 integrins): over 100 times
